# Results as given in patent US20210145830A1, “MATERIALS AND METHODS FOR TREATING CANCER” (Mayo Foundation for Medical Education and Research, priority 2018, published 2021).
# Entries after “also recorded” stand apart in the source; their conditions may differ.
# Columns and labels:
# [1] = test system: regulatory T cells (Treg); test: Regulatory T cell expansion (anti-CD3/CD28 beads, IL-2); type: cell-based, human
# Protocol: FIGS. 19A-F. A. Inhibitory receptors expression in naïve T cells after TCR activation with CD3 stimulation in the increasing dose of TP0903. Naïve T cells were incubated with anti CD3/CD28 beads at a 1 to 3 ratio in the presence of TP0903. At day 3, T cells were stained with PD-1, TIM-3, LAG-3, and ICOS. […] Teff cells were isolated by negative selection using Human T Cell Isolation Kit. Tregs were isolated by negative selection using the human CD4^+CD127^lowCD25^+ Treg isolation kit. Teff and Treg were stimulated with anti CD3/CD28 beads and 400 U/ml of IL-2. At day 5, total T cells were evaluated via CountBright quantification. C. CART19 cytokine assay in the presence TP0903. UTDs or CART19 were incubated with Jeko in the presence of TP-0903 at a 1 to 1 ratio. Supernatant was harvested and analyzed by 32-plex Luminex array after 3 days. D. Inhibitory receptors expression in CART19 cells in the presence TP0903. UTDs or CART19 were incubated with Jeko at a 1 to 1 E/T ratio in the presence of TP0903. At day 5, T cells were stained with PD-1 (left), LAG-3 (right), and TIM-3. […] Cell killing was assessed by luminescence at 24 hours. […]
# FIG. 21A-E. TP0903 modulates naïve T cells function upon stimulation of PMA/Ionomycin in vitro. […] At day 5, total T cells were evaluated via CountBright quantification.
# [2] = test system: p-LCK, p38MAPK, GATA-3, T-bet in CART19 cells; test: Western blot of signaling molecules in stimulated CART19 cells; type: cell-based
# Protocol: FIG. 24A-B. A. Western blot analysis of p-LCK inhibition by TP0903 in CART19 cells. CART19 cells were incubated with lethally irradiated JeKo-1 in the presence of TP0903 at a 1 to 3 ratio for 24 hours. After the incubation, CART19 cells were purified with anti-CD19 micro beads. […] B. Comparison of gene expression between TP0903 treated CART19 cells and non-treated CART19 cells subpopulations using RNA-seq. CART19 cells from three biological replicates were thawed and stimulated with irradiated JeKo-1 (120 Gy) for 5 days. Each sample was treated with either 30 nM TP0903 (treated condition) or DMSO (untreated condition). Representative flow cytometric analysis of CART19 cells before RNA isolation (right). RNA-seq was performed on an Illumina […] by the Genomic Sequencing Core at Mayo Clinic.
# CART19 = CART19 cytokine release (Luminex) in the presence of TP0903; type: cell-based, human; settings: for Th2 cytokines IL-4 and IL-5 / cytokine release syndrome (CRS) cytokines (MCP1, IL-6, IL-10, MIP-b): Jeko or CLL cells
# Protocol: FIG. 7 contains an exemplary timeline for a cytokine assay in the presence of TP0903. UTDs or CART19 were incubated with Jeko in the presence of TP0903 in the 1 to 1 ratio. At day 3, supernatant was harvested and analyzed by 32-plex Luminex array.
# FIG. 23. CART19 cytokine production in the presence of TP0903. CART19 cells or untransduced T cells were co-cultured with JeKo-1 cells or leukemic B cells derived from patients with chronic lymphocytic leukemia for 3 days and supernatants were analyzed for human cytokines (Luminex, 38-plex).
# FIG. 27. CART19 cytokine production in the presence of TP-0903. CART19 cells or untransduced T cells were co-cultured with JeKo-1 cells (left heat map) or leukemic B cells (right heat map) derived from patients with chronic lymphocytic leukemia for 3 days, and supernatants were analyzed for human cytokines (Luminex, 38-plex).
# Effector and target cells were incubated at a 1:1 ratio in T cell media for 24 or 72 hours as indicated. Supernatant was harvested and analyzed by 30-plex Luminex array according to the manufacturer's protocol (Millipore).
# UTDs or CART19 were incubated with Jeko cell line or primary CLL cells in the presence of TP0903, at 1:1 ratio for 3 days (FIG. 7). At the end of the experiment, supernatant was harvested and analyzed for cytokines by 30-plex multiplex. […] TP0903 suppressed critical cytokines for the development of CRS after CART cell therapy (FIG. 10).
# Naïve T cells [3] = test: Naïve T cell proliferation assay (PMA/Ionomycin); type: cell-based; settings: PMA 5 ng/ml + Ionomycin 0.1 μg/ml; TP0903 10-65 nM; 3 days
# Protocol: (§1) FIG. 21A-E. TP0903 modulates naïve T cells function upon stimulation of PMA/Ionomycin in vitro. A. Naïve T cell proliferation assay in the presence of TP0903. Naïve T cells were stimulated with 5 ng/ml of PMA and 0.1 μg/ml of Ionomycin in the absence or in the increasing dose of TP0903 (10-65 nM) for 3 days. […] B. At the end of the expansion on day 3, T cells were stained with inhibitory receptors. […] C. Naïve T cell degranulation assay and cytokine production in the presence of TP0903. Naïve T cells were stimulated with 50 ng/ml of PMA and 1 μg/ml of Ionomycin for 4 hours in the presence of increasing doses of TP0903 (10-65 nM). […] D. Western blot analysis of p-LCK and GATA-3 inhibition by TP0903 in naïve T cells. Naïve T cells were stimulated with 5 ng/ml of PMA and 0.1 ug/ml of Ionomycin in the absence (DMSO) or in the increasing dose of TP0903 (10-65 nM) for 24 hours. […] was used as loading control. E. TP0903 specifically reduces regulatory T cells (Treg). Effector T cells (Teff) were isolated by negative selection using RoboSep™ Human T Cell Isolation Kit (Stemcell Technologies). Tregs were isolated by negative selection using the human CD4^+CD127^lowCD25^+ Treg isolation kit (Stemcell Technologies). Teff and Treg were stimulated with anti-CD3/CD28 beads and 400 U/ml of IL-2. At day 5, total T cells were evaluated via CountBright quantification.
# Naïve T cells [4] = test: Naïve T cell degranulation assay and cytokine production; type: cell-based; settings: PMA/Ionomycin
# Protocol: as §1
# [5] = CART19 + irradiated JeKo-1, 24 hours, highest dose
# [6] = CART19 + irradiated JeKo-1, 24 hours, highest dose (65 nM)
# [7] = 3 days, supernatant, listed as TP-0903
smiles,measurement,setting,value
CN1CCN(Cc2ccc(Nc3ncc(Cl)c(Nc4ccccc4S(=O)(=O)N(C)C)n3)cc2)CC1 [TP0903],Treg expansion,"[1]; anti-CD3/CD28 beads + 400 U/ml IL-2, day 5",specifically reduced
same,Treg versus effector T cells,[1]; treated with TP0903 for 3 days,preferential reduction
same,GATA-3,[2]; [5],inhibited
same,T-bet,[2]; [5],inhibited
same,phosphorylation of LCK,[2]; [6],modest inhibition
same,phosphorylation of p38MAPK,[2]; [6],modest inhibition
same,phosphorylation of LCK,"[2]; T cell lysates, CART19, Example 2 text",remarkably reduced
same,"CART Th1 specific cytokines (IFN-γ, TNF-α)","CART19; 1:1 with Jeko or primary CLL cells, 3 days, supernatant",only high doses (supra-physiological) suppressed; also recorded: maintains
same,IL-8,"CART19; JeKo-1 or CLL leukemic B cells, 3 days, Luminex 38-plex",downregulated
same,"cytokine production ability of IFN-γ, GM-CSF, TNF-α, and IL-2","CART19; JeKo-1 or CLL patient leukemic B cells, 3 days, Luminex 38-plex",maintained
same,Th2 cytokines IL-4 and IL-5,"CART19; 3 days, supernatant",suppresses; also recorded: significantly downregulated
same,"cytokine release syndrome (CRS) cytokines (MCP1, IL-6, IL-10, MIP-b)","CART19; 3 days, supernatant",suppresses; also recorded: reduction; also recorded: remarkably downregulated
same,Th2 cytokines IL-4 and IL-5,CART19; [7],significantly downregulated
same,"cytokine release syndrome (CRS) cytokines (MCP1, IL-6, IL-10, MIP-b)",CART19; [7],remarkably downregulated
same,Th polarization of CART cells,CART19; stimulated with JeKo or leukemic B cells from CLL patients,polarization of CART cells into a Th1 phenotype
same,T cell expansion,Naïve T cells [3],did not interfere
same,IL-4,"Naïve T cells [4]; 4 hours, increasing dose of TP0903 (10-65 nM)",significant inhibition
same,cytokine production (Th1 / Th2 cytokines),Naïve T cells [4]; low dose TP0903,favorably altered through the promotion of Th1 and reduction of Th2 cytokines
